Test results from patent US7378387B2, “Method of suppressing immune response by reducing intracellular content of glutathione in macrophages and monocytes” (Ajinomoto Co., Inc., priority 1997, dated 2008).

What was measured:
[1] = system: reductive glutathione in peritoneal macrophages; assay: Reductive glutathione content of peritoneal macrophages by ACAS, advanced tumor-bearing mice (Example 4); assay type: in vivo, CDF1 mice; conditions: oral 1 mg/0.5 ml/h every day for 10 days from day 21 after COLON 26 implantation; control physiological saline
Procedure: Oxidative and reductive macrophages collected from peritoneal cavities of advanced tumor-bearing cachectic mice (COLON 26) and normal mice were determined. The COLON 26 transplantable tumor well known to induce a cancer cachexia was implanted subcutaneously in the back portion of CDF1 mice at a density of 5×10^5 cells/mouse. On day 21 after the tumor implantation, the cachectic condition was provided. Five milliliters of a physiological saline solution were intraperitoneally injected into the mice which became resistant to a therapeutic treatment. Peritoneal macrophages were collected, and suspended in a phenol red-free RPMI 1640 medium containing 10% fetal calf serum to a density of 3×10^5 cells/ml. One hundred microliters of the suspension were charged in a Lab-Tek Chamber Slide (#136439, supplied by Nunc), and incubated in 5% CO2 at 37° C. for 3 hours. After the nonadherent cells were removed, 200 μl of the above-mentioned medium free from serum were added thereto, and monochlorobimane (MCB) was added thereto in an amount of 10 μM. The reaction was conducted for 30 minutes, and the image analysis was conducted on the basis of the UV absorption using an ACAS device (supplied by Meridien).
The COLON 26 transplantable tumor was implanted subcutaneously in the back portion of CDF1 mice at a density of 5×10^5 cells/mouse. […]

IL-6 = IL-6 in culture supernatant of macrophages of NOD mice (Example 22); assay type: in vivo; conditions: oral 1 mg/0.5 ml/h/day on alternate days, five times, age 4 weeks; control group 3800 pg/ml
Procedure: The amount of IL-6 was determined using IL-6 dependent mouse hybridoma MH60 cells (J. Eur. Immunol., vol. 18, p. 951, 1988). One hundred microliters of the culture supernatant were added to 100 μl of the MH60 cell suspension adjusted to 1×10^5 cells/ml in a 10% FCS-containing RPMI medium, and the mixed solution was incubated at 37° C. for 2 days in a CO2 incubator. Subsequently, 10 μl of MTT (supplied by Sigma Co.) solution adjusted to a concentration of 5 mg/ml in the same medium were added thereto, and the reaction was conducted at 37° C. for 5 hours. After the completion of the reaction, the centrifugation was conducted. The supernatant (160 μl) was removed, and 100 μl of a mixture of hydrochloric acid and propanol were added to the residue. The suspension was conducted using a pipetman to dissolve the cells. Immediately after the dissolution, an absorbance of 570 nm was measured with an immunometer (supplied by Bio-Rad).
Through a probe, glutathione ethyl ester was orally given at 1 mg/0.5 ml/h/day to the NOD mice of age 4 weeks on alternate days, in total five times. By the same method as in Example 3, intraperitoneal cells were collected from the mice to sample intraperitoneal macrophages, which were then suspended and adjusted in a phenol red-free RPMI 1640 culture medium supplemented with 10% fetal calf serum to 3×10^6 cells/ml. […]

CCOC(=O)CNC(=O)[C@H](CS)NC(=O)CC[C@H](N)C(=O)O [GSH-OEt, glutathione monoethyl ester]
amount of oxidative macrophage (reductive glutathione content decreased) in comparison with control mice [1]: relatively decreased | IL-6 in the culture supernatant of the macrophages (IL-6): 460 pg/mL
